Source: a melting point compilation (Tetko et al.; mined from patent text by program, amines drawn as free bases though some values may be those of a salt)

SMILES	melting point [°C]
CCOc1nc2c(N)nc3cccnc3c2n1CC1CCOCC1	197 to 200
CC1OC(C)(C)c2cc(-c3ccc(C#N)n3C)ccc2N1C(=O)OCC1c2ccccc2-c2ccccc21 (stereo not drawn)	63 to 64
COc1ccc2c(c1OC)CCC2c1c[nH]cn1 (stereo not drawn)	156 to 158
O=C(Nc1ccc(C(=O)N2Cc3ccccc3Cc3ccccc32)cc1)c1cccc(Cl)c1Cl	225 to 230
Cc1cc(C)cc(-c2nc(NC(=O)c3ccccc3)sc2-c2ccncc2)c1	285 to 286
Cc1csc(C(=O)CCl)c1	76 to 77
CNC(=O)c1ccccc1CC(O)(CCN(C)C)c1ccccc1 (stereo not drawn)	140
COC(=O)c1ccc(Cn2c(=O)c3cc(C(=O)NCc4ccc(OC)cc4)ccc3n(C)c2=O)cc1	189
Oc1ccc(CCNCC(O)c2ccc(OCc3ccccc3)cc2)cc1OCc1ccccc1 (stereo not drawn)	124 to 125
CCCc1nn(C)c2c(=O)[nH]c(-c3cc(CCCN)ccc3OCC)nc12	115 to 117
CCc1n[nH]c(=O)c2c(C)ncn12	175 to 178
CCOC(=O)c1cncc(C(=O)NC(C)c2ccccc2)c1 (stereo not drawn)	159 to 161
CSc1ccc(-c2cnn(CC(F)(F)F)c(=O)c2Cl)cc1	130 to 139
Cc1c(N2CC[C@@H](C3(NCCO)CC3)C2)c(F)cc2c(=O)c(C(=O)O)cn([C@@H]3C[C@@H]3F)c12	168 to 170
CCOC(=O)c1c(CN(CC)CC)nc2sc3c(c2c1-c1ccc(OC)c(OC)c1)CCN(C(=O)NC)C3	153 to 155
Cc1cccc2c(Cl)cc(C(F)(Cl)Cl)nc12	90 to 94
Cn1ccnc1COc1cc(Cl)ncn1	126 to 128
CC1(C)C2CCC1(CNC(=O)CBr)CC2	89
CCN(CC)C(=O)CCc1ccc(O)c(N)c1	92 to 93

SMILES	melting point [°C]
CCC(CC)N(Cc1ccc(C(=O)O)cn1)S(=O)(=O)c1ccc(F)cc1	145 to 147
CC(=O)c1c(-c2ccccc2)nn(CC2CC2)c(=O)c1Nc1cccc2ncccc12	204 to 205
C[C@H](NC(=O)Cc1ccccc1)C(=O)N[C@@H]1C(=O)Nc2ccccc2O[C@@H]1c1ccccc1	122 to 136
COc1ccc(C(O)Cc2ccncc2)c2c1OC1(CCCCC1)CC2 (stereo not drawn)	123 to 133
NC(=O)CCNc1cc(Oc2ccc(C(F)(F)F)cc2Cl)ccc1[N+](=O)[O-]	137 to 138
CN(C)CCOC(=O)CCc1c(C(=O)OCCN(C)C)[nH]c2cc(Cl)cc(Cl)c12	95 to 97
Cn1c(C(F)(F)F)cc(=O)n(-c2c(F)cc(Cl)c3c2OC(C)(C)C3O)c1=O (stereo not drawn)	82 to 83
CCC(CC)N(OCc1ccccc1)C(=O)Nc1ccccc1	45 to 45.6
CCc1c(Cl)cnc(N)c1F	71 to 72
COCCOc1ccc(/C=C/C(=O)NS(=O)(=O)c2ccc(F)cc2)c(Oc2ncc(C(F)(F)F)cc2Cl)c1	183 to 184
CCc1cccc(C)c1CNc1cc(C(=O)N2CCCC2)cc2c1nc(C)n2C	126
COc1cc(Cl)ccc1C(=O)Nc1ccc(-n2nc(C(F)(F)F)cc2C(F)(F)F)cc1	178 to 180
COc1cccc2c1CCC2C(=O)O (stereo not drawn)	117 to 118
C[C@@H](S[C@H]1CO[C@H](c2ccc(C(=O)NCc3cccc4ccccc34)cc2)OC1)[C@](O)(Cn1cncn1)c1ccc(F)cc1F	97
NC(=O)N(O)CCOc1ccc2c(c1)CCN(CCCc1ccc(F)cc1)C2=O	138 to 140
COc1ccc(Cl)c(Oc2c(CCl)nc(N3CCOCC3)nc2NS(=O)(=O)c2ccc(C(C)(C)C)cc2)c1	155 to 156
O=C1c2cccc3cc(OS(=O)(=O)C(F)(F)F)cc(c23)C(=O)N1O	167 to 169
Nc1nc(-c2ccccc2)c(-c2ccc(=O)n(Cc3ccccc3)n2)s1	225 to 228
CCCCCCCCCCOCCC(=O)O	41.5 to 43.9
